Literature values as cited in PMC8480965 (The Journal of General Physiology, 2021).

Columns and labels:
Kv2.1 [1] = conditions: ref Tilley et al., 2019
Kv2.1 [2] = conditions: sphingomyelin converted to ceramide-1-phosphate; ref Milescu et al., 2009
Kv2.1 [3] = conditions: independent binding to each voltage sensor; ref Lee et al., 2003

| Substance | V1/2 of gating charge–voltage (QV) relation (Kv2.1 [1]; Kv2.1 in saturating GxTX) | z of gating charge–voltage (QV) relation (Kv2.1 [1]; Kv2.1 in saturating GxTX) | stabilization of voltage sensor in resting conformation with GxTX bound (Kv2.1 [1]; estimated previously) | deactivation rate of voltage sensors bound by GxTX (Kv2.1 [1]) | mode of action on Kv2.1 (Kv2.1 [1]) | enhancement of GxTX affinity for Kv2.1 by sphingomyelinase D (Kv2.1 [2]) | inhibition of total gating charge movement per voltage sensor bound (Kv2.1 [3]) |
| --- | --- | --- | --- | --- | --- | --- | --- |
| guangxitoxin-1E (EGECGGFWWKCGSGKPACCPKYVCSPKWGLCNFPMP; UniProt P84835 1-36, looked up) [GxTX] | 47 ± 1 mV | 1.6 ± 0.1 e0 | 5,400 fold | faster deactivation rate | partial inverse agonist of Kv2.1 | fourfold | – |
| Hanatoxin | – | – | – | – | – | – | ~25% |
